Columns and labels:
[1] = test system: Syrian hamsters; experiment: Test Example 3: olive oil-loading test (inhibition of fat absorption, plasma TG); type: in vivo; conditions: Mesocricetus auratus, po, plasma TG 4 hours after olive oil, read-out: Test Example 3 Inhibition of fat absorption after olive oil-loading in Hamster Inhibition rate (%); for inhibition in vivo at 3 mg/kg: 3 mg/kg p.o.
Description: Syrian hamsters (9-11 weeks of age) under non-fasted conditions were used in the test. Blood was collected previously from orbital venous plexus, and a sample was suspended in 0.5% methyl cellulose (vehicle) and the suspension was forced to be administered orally to the hamsters at a dose of 0.3, 1, 3 or 10 mg/2 mL/kg. Only vehicle in the same volume was administered to the control group. Olive oil (2 mL/kg) was forced to be administered orally 30 minutes after the administration of the sample, and blood was collected from orbital venous plexus 4 hours later. Plasma was recovered from the blood, and the amount of triglyceride (TG) in the plasma was determined by automatic analyzer (Hitachi Co.). The data was expressed in terms of ΔTG(mg/dL)=the value at 4th hr minus the value before administration. Inhibition rate (%) was calculated from the data obtained on the basis of the following equation.
Inhibition rate (%)=100×(1 minus ΔTG of sample group/ΔTG of control group).

[2] = test system: HepG2 cells; experiment: Test Example 2: inhibition of apolipoprotein B secretion from HepG2 cells, ELISA (also used for metabolites in Test Example 8); type: cell-based; conditions: Homo sapiens, 24 hours, apo B in supernatant by ELISA, read-out: Test Example 2 Inhibition of apo B secretion IC50
Summary of the method: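 HepG2 cells cultured 24 h, then exposed 24 h to compounds or metabolites in medium with 0.5% DMSO. Secreted apo B in supernatant quantified by sandwich ELISA (HRP, ABTS, 405 nm) against purified human apo B standard; % inhibition vs DMSO group, IC50 derived.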

[3] = target: T1, Microsomal triglyceride transfer protein (MTP) from bovine liver (Bos taurus, UniProt P55156); experiment: Test Example 1: inhibition of interliposomal triglyceride (TG) transfer activity by MTP (also used for metabolites in Test Example 8); type: biochemical; conditions: MTP-mediated 14C-triolein transfer between liposomes, 37° C., one hour; read-out: Test Example 1 MTP inhibition IC50
T1 construct: from tissue; host or cells: bovine liver
T1 sequence (P55156 12-887): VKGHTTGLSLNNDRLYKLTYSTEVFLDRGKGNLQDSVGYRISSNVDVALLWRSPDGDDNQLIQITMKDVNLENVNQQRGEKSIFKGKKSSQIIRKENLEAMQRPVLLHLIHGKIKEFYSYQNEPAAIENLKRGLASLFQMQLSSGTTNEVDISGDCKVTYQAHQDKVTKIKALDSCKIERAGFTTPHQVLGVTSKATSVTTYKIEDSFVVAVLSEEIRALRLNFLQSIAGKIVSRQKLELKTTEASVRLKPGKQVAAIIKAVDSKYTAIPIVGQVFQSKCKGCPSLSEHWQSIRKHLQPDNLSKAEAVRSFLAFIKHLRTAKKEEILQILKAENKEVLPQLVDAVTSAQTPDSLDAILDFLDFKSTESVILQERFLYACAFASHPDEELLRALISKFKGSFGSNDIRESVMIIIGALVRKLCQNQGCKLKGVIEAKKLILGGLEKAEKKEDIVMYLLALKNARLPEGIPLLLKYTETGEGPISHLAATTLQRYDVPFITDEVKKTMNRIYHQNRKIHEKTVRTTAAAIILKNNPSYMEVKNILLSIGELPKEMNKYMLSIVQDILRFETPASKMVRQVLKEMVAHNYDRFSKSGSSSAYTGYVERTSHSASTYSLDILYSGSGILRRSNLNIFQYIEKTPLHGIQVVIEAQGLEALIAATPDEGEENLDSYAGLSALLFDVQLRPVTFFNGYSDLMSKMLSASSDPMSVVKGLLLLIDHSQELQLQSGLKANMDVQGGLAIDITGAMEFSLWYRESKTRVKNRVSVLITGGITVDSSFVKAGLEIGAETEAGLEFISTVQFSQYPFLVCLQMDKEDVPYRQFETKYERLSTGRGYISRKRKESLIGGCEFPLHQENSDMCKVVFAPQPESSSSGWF
T1 sequence (P05307 21-510 partner): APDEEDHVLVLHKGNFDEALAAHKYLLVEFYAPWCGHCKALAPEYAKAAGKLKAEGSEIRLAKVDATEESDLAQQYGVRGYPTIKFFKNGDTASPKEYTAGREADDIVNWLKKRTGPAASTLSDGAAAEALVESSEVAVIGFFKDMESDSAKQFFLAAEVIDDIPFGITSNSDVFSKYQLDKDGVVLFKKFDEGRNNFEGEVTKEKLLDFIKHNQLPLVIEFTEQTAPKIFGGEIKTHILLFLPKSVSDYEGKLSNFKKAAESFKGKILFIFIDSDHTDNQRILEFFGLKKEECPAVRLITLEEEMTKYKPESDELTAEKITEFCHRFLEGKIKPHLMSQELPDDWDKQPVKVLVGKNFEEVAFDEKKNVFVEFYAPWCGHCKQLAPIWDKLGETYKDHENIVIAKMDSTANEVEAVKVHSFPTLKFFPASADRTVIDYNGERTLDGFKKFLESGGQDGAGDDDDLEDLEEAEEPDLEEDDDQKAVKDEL
Description: Inhibition of Interliposomal Triglyceride (TG) Transfer Activity by MTP
Microsomal triglyceride transfer protein (MTP) from bovine liver was partially purified in such a way described below. A buffer (50 mM Tris, 250 mM sucrose, 1 mM EDTA, 0.02% NaN3 (pH 7.4)) for making a homogenate preparation was added to bovine liver, and the mixture was homogenated under ice-cooling, then centrifuged at 10,000×g (4° C., 30 minutes). The supernatant was adjusted to pH 5.1 with hydrochloric acid, and stirred for 30 minutes. The solution was further centrifuged at 10,000×g (4° C., 30 minutes), and 1 mM Tris buffer was added to the precipitated residue, and the mixture was adjusted to pH 8.6 with sodium hydroxide. After addition of 2.7M ammonium sulfate solution, the mixture was stirred for 30 minutes, then centrifuged at 10,000×g (4° C., 40 minutes). The resulting supernatant was served as a crude extraction fraction of MTP and stored at −80° C. under freezing. In its practical use, the crude extraction fraction of MTP was purified by column chromatography on diethylaminoethyl (DEAE) Sepharose using FPLC (Fast Performance Liquid Chromatography) system, and the purified MTP was used for the test.
Small unilamellar-vesicle (SUV) liposome (donor, 0.25 mol % triolein, 5 mol % cardiolipin) labeled with ^14C-triolein and non-labeled SUV liposome (acceptor, 0.25 mol % triolein) were prepared. A fixed amount of donor and acceptor, and MTP were mixed with a sample dissolved in DMSO or with DMSO. The mixture was incubated in a 15 mM Tris hydrochloride buffer (pH 7.4) containing 40 mM sodium chloride, 1 mM EDTA (ethylenediaminetetraacetic acid), 0.02% NaN3 and 0.5% bovine serum albumin at 37° C. for one hour. After completion of the incubation, a suspension of DEAE cellulose (50% v/v) in 15 mM Tris hydrochloride buffer (pH 7.4) was added to the above solution, and the mixture was centrifuged to separate the donor and the acceptor. The radioactivity in the acceptor was measured by liquid scintillation counter. The value obtained by subtracting the radioactivity in the blank from the amount of radioactivity in the acceptor of a DMSO group was determined as MTP-mediated TG transfer activity, and it was compared with the value obtained by subtracting the radioactivity in the blank from the radioactivity in a sample group. The blank was prepared by adding 15 mM Tris-HCl buffer (pH 7.4) in place of MTP. Inhibition rate (%) was calculated from the values obtained according to the following equation.
Inhibition rate (%)=100×(1 minus ((radioactivity of sample group minus radioactivity of blank group)/(radioactivity of DMSO group minus radioactivity of blank group))).
50% Inhibition rate (IC50) was determined on the basis of the above equation.
Inhibitory Activity on MTP and apo B Secretion Inhibition by Metabolites
In a similar manner to Test Examples 1 and 2, the activity of metabolites was assayed.

SMILES | inhibition in vivo at 3 mg/kg [1] [%] | IC50 [2] [nM] | inhibition in vivo at 10 mg/kg ([1]; 10 mg/kg p.o.) [%] | IC50 [3] [nM]
CCNC(=O)C(COC(=O)Cc1ccc(NC(=O)c2ccccc2-c2ccc(C(F)(F)F)cc2)c(C(=O)N(CC)CC)c1)(C(=O)NCC)c1ccccc1 [Example 2-8] | 89 | 0.99 | – | –
CCOC(=O)C(COC(=O)Cc1ccc(NC(=O)c2ccccc2-c2ccc(C(F)(F)F)cc2)c(C(=O)N(C)CC)c1)(C(=O)OCC)c1ccccc1 [Example 2-13] | 70 | 0.74 | – | –
CCNC(=O)C(COC(=O)Cc1ccc(NC(=O)c2ccccc2-c2ccc(C(F)(F)F)cc2)c(C(=O)N(C)CC)c1)(C(=O)NCC)c1ccccc1 [Example 2-14] | 80 | 1.2 | – | –
CCNC(=O)C(CCOC(=O)Cc1ccc(NC(=O)c2ccccc2-c2ccc(C(F)(F)F)cc2)c(C(=O)N(C)CC)c1)(C(=O)NCC)c1ccccc1 [Example 2-15] | 81 | 0.53 | – | –
CCCN(C)C(=O)c1cc(CC(=O)OCC(C(=O)OCC)(C(=O)OCC)c2ccccc2)ccc1NC(=O)c1ccccc1-c1ccc(C(F)(F)F)cc1 [Example 2-18] | 58 | 0.69 | – | –
CCC(=O)N[C@H](COC(=O)Cc1ccc(NC(=O)c2ccccc2-c2ccc(C(F)(F)F)cc2)c(C(=O)N(C)C)c1)c1ccccc1 [Example 2-25] | 55 | 6.3 | – | –
CCOC(=O)C(COC(=O)Cc1ccc(NC(=O)c2ccc(C)cc2-c2ccc(C(F)(F)F)cc2)c(C(=O)N(C)C)c1)(C(=O)OCC)c1ccccc1 [Example 2-48] | 87 | 0.36 | – | –
CCCNC(=O)C(COC(=O)Cc1ccc(NC(=O)c2ccccc2-c2ccc(C(F)(F)F)cc2)c(OC)c1)(C(=O)NCCC)c1ccccc1 [Example 3-5] | – | 2.2 | 80 | –
CCNC(=O)C(CCOC(=O)Cc1ccc(NC(=O)c2ccccc2-c2ccc(C(F)(F)F)cc2)c(OC(C)C)c1)(C(=O)NCC)c1ccccc1 [Example 3-11] | 75 | 0.36 | – | –
CCNC(=O)C(CCOC(=O)c1ccc(NC(=O)c2ccccc2-c2ccc(C(F)(F)F)cc2)cc1)(C(=O)NCC)c1ccccc1 [Example 6-19] | – | 35 | – | 3.2
CCNC(=O)C(CCOC(=O)c1ccc(OC(=O)c2ccccc2-c2ccc(C(F)(F)F)cc2)cc1)(C(=O)NCC)c1ccccc1 [Example 6-21] | – | 920 | – | 9.8
O=C(N[C@H]1CC[C@H](C(=O)OCCC2(C(=O)NCC(F)(F)F)c3ccccc3-c3ccccc32)CC1)c1ccccc1-c1ccc(C(F)(F)F)cc1 [Example 7, Trans-4-[(4′-trifluoromethylbiphenyl-2-carbonyl)amino]cyclohexanecarboxylic acid 2-[9-(2,2,2-trifluoroethylcarbamoyl)-9H-fluoren-9-yl]ethyl ester] | – | 60 | – | 4.97
O=C(N[C@H]1CC[C@@H](C(=O)OCCC2(C(=O)NCC(F)(F)F)c3ccccc3-c3ccccc32)CC1)c1ccccc1-c1ccc(C(F)(F)F)cc1 [Example 7-2] | – | 26 | – | 2.46
CCOC(=O)C(CCOC(=O)C1CCC(NC(=O)c2ccccc2-c2ccc(C(F)(F)F)cc2)CC1)(C(=O)OCC)c1ccccc1 (stereo not shown) [Example 7-5] | – | 237 | – | 16.2
CCOC(=O)C(COC(=O)CN1CCC(NC(=O)c2ccccc2-c2ccc(C(F)(F)F)cc2)CC1)(C(=O)OCC)c1ccccc1 [Example 8, 2-Phenyl-2-(2-{4-[(4′-trifluoromethylbiphenyl-2-carbonyl)amino]piperidin-1-yl}acetoxymethyl)malonic acid diethyl ester] | – | 595 | – | 33
CCOC(=O)C(COC(=O)Cn1ccc2c(NC(=O)c3ccccc3-c3ccc(C(F)(F)F)cc3)cccc21)(C(=O)OCC)c1ccccc1 [Example 9, 2-Phenyl-2-(2-{4-[(4′-trifluoromethylbiphenyl-2-carbonyl)amino]indol-1-yl}acetoxymethyl)malonic acid diethyl ester] | – | 260 | – | 11
CCOC(=O)C(COC(=O)Cn1c(C)nc2c(NC(=O)c3ccccc3-c3ccc(C(F)(F)F)cc3)cccc21)(C(=O)OCC)c1ccccc1 [Example 9-2, 2-(2-{2-methyl-4-[(4′-trifluoromethylbiphenyl-2-carbonyl}amino]benzimidazol-1-yl}acetoxymethyl)-2-phenyl-malonic acid diethyl ester] | – | 450 | – | 4.2
CCNC(=O)C(COC(=O)Cc1ccc(NC(=O)c2ccccc2-c2ccc(C(F)(F)F)cc2)c(C(=O)OCC)c1)(C(=O)NCC)c1ccccc1 [Example 9-10] | 54 | 2.3 | – | –
CCOC(=O)C(COC(=O)Cn1cnc2c(NC(=O)c3ccccc3-c3ccc(C(F)(F)F)cc3)cccc21)(C(=O)OCC)c1ccccc1 [Example 9-11] | – | 210 | – | 20
CCNC(=O)C(COC(=O)Cc1ccc(NC(=O)c2ccccc2-c2ccc(C(F)(F)F)cc2)c(C(=O)OC)c1)(C(=O)NCC)c1ccccc1 [Example 9-13] | 70 | 0.53 | – | –

Source: patent US7625948B2, “Ester compound and medicinal use thereof” (Japan Tobacco Inc., priority 2002, dated 2009)
